Data reported in patent US6617337B1, “Use of nitroxides for the treatment of essential hypertension” (Georgetown University, priority 1997, dated 2003).
Where “and” joins values, the source holds several entries; their conditions need not be identical. Equal values may be shown once.

Columns and labels:
Format in all cases: in vivo, rat
SHR and WKY rats [1] = experiment: MAP during constant intravenous infusion of Tempol in anesthetized rats (dose-response); conditions: Tempol 1,800 μmol·kg^−1·h^−1 i.v. infusion, 30 minutes
SHR and WKY rats [2] = experiment: Two weeks of oral Tempol in the drinking water: MAP, HR, renal hemodynamics, excretion, 8-ISO; conditions: Tempol 1 mM in drinking water
Experimental: Thereafter, WKY and SHR were anesthetized with thiobutabarbital (100 mg/kg, i.p., Inactin, Research Biochemicals International) and maintained at 37° C. on a servo-controlled heated rodent operating table. A tracheostomy was performed with polyethylene PE-240 tubing and the left jugular vein and carotid artery were cannulated with PE-50 tubing. A 1% albumin solution in 0.154 M NaCl was infused at 2 ml/h, i.v. to maintain a euvolemic state. A midline incision was made and the left renal artery was isolated. A blood flow probe was placed around the renal artery and connected to a transit-time blood flowmeter (IRB, Transonic Systems, Inc.). We have previously shown that this method of measuring real-time changes in renal blood flow (RBF) is valid in the rat. Mean arterial pressure (MAP) and heart rate (HR) were continuously recorded from the carotid artery using a Statham pressure transducer (model P23, Gould Instruments) and MACLab data acquisition software. Glomerular filtration rate (GFR) was determined from the clearance of [^3H]-inulin. Following surgery and a 60 min equilibration period, MAP, HR, GFR, and RBF were measured over 30 minutes and the data was averaged.

SHR and WKY rats [3] = experiment: MAP and renal hemodynamics during bolus intravenous injection of Tempol in anesthetized rats; conditions: for Decrease in MAP: Tempol 72 μmol/kg IV; for RBF during Tempol: dose not specified (24 and 72 μmol/kg studied)
Experimental: In the first group, the short-term actions of Tempol were determined in anesthetized rats. […] The following data was obtained:
Materials and Methods. In Examples 3 to 6, groups of male SHR and WKY rats (200 to 300 g) were maintained on tap water and standard chow (Harlan-Teklad Inc.). […] In order to do this experiment, WKY (n=6) and SHR (n=6) were anesthetized with thiobutabarbital (100 mg/kg i.p., Inactin, Research Biochemicals International) and maintained at 37° C. on a servocontrolled heated rodent operating table. A tracheostomy was performed with polyethylene PE-240 tubing, and the left jugular vein and carotid artery were cannulated with PE-50 tubing. Intravenous infusion of 1% albumin dissolved in 0.154 M NaCl solution was infused at 2 mL/h i.v. to maintain an euvolemic state. A midline incision was made, and the left renal artery was isolated. A blood-flow probe was placed around the renal artery and connected to a transit-time blood flowmeter (1RB, Transonic Systems Inc.). We have previously shown that this method of measuring real-time changes in RBF is valid in the rat (Welch et al., 1995 Am. J. Physiol. 37: F175-F178).
MAP was continuously recorded from the carotid artery using a Statham pressure transducer (model P23, Gould Instruments) and MACLab data acquisition program. After 60 minutes of equilibration, there was a basal period for measurement of MAP and RBF over 30 minutes.

SHR and WKY rats [4] = experiment: MAP after 7 days of intraperitoneal Tempol; conditions: Tempol 250 mg/kg/day intraperitoneally for 7 days
[5] = SHR, Tempol 4 mg/kg intravenously
[6] = WKY, Tempol 4 mg/kg intravenously

CC1(C)CC(O)CC(C)(C)N1[O] [Tempol, 4-hydroxy-2,2,6,6-tetramethyl-1-piperidinyloxy]
MAP (SHR and WKY rats [1]; SHR): 72±10 mm Hg
MAP (SHR and WKY rats [1]; WKY): 71±3 mm Hg
RBF (SHR and WKY rats [2]; SHR, 2 weeks): 5.6 ± 0.5 mL/min
RVR (SHR and WKY rats [2]; SHR, 2 weeks): 26.4 ± 2.6 mm Hg/ml/min
UNaV (SHR and WKY rats [2]; SHR, 2 weeks): 2.1 ± 0.2 mmol/24 hr
UV (SHR and WKY rats [2]; SHR, 2 weeks): 15.2 ± 1.7 ml/24 hr
Decrease in RVR (tendency, not significant) (SHR and WKY rats [2]; SHR, two weeks): 16%
GFR (SHR and WKY rats [2]; SHR, two weeks): 1.9 ± 0.3 mL/min and 2.0 ± 0.2 mL/min
Heart rate (SHR and WKY rats [2]; SHR, two weeks): 414±9 bts/min
Increase in GFR (SHR and WKY rats [2]; SHR, two weeks): 17%
MAP (SHR and WKY rats [2]; SHR, two weeks): 134±6 mm Hg
UV8-ISO (8-iso-prostaglandin F2α excretion) (SHR and WKY rats [2]; SHR, two weeks): 6.0±0.7 ng/24 hr
Decrease in MAP compared to normal SHR (SHR and WKY rats [2]; SHR, two weeks, p<0.05): 18%
Decrease in UV8-ISO (8-iso-prostaglandin F2α excretion) (SHR and WKY rats [2]; SHR, two weeks, p<0.05): 39%
Body weight gain (SHR and WKY rats [2]; 2 weeks, WKY and SHR pooled): 66±3 g/14 days
Food intake (SHR and WKY rats [2]; 2 weeks, WKY and SHR pooled): 24 ± 1 g/day
Water intake (SHR and WKY rats [2]; 2 weeks, WKY and SHR pooled, p<0.05 vs control): 43 ± 3 mL/day
GFR (SHR and WKY rats [2]; WKY, 2 weeks): 2.5 ± 0.4 mL/min
RBF (SHR and WKY rats [2]; WKY, 2 weeks): 8.8 ± 0.9 mL/min
RVR (SHR and WKY rats [2]; WKY, 2 weeks): 14.2 ± 1.4 mm Hg/ml/min
UNaV (SHR and WKY rats [2]; WKY, 2 weeks): 2.4 ± 0.6 mmol/24 hr
UV (SHR and WKY rats [2]; WKY, 2 weeks): 16.7 ± 2.3 ml/24 hr
Heart rate (SHR and WKY rats [2]; WKY, two weeks): 373±8 bts/min
MAP (SHR and WKY rats [2]; WKY, two weeks): 118±7 mm Hg
MAP (SHR and WKY rats [3]; SHR, Tempol 24 μmol/kg IV bolus): 147±4 mm Hg
RVR (SHR and WKY rats [3]; SHR, Tempol 72 μmol/kg): 17±2 mm Hg·mL^−1·min^−1
MAP (SHR and WKY rats [3]; SHR, Tempol 72 μmol/kg IV bolus): 104±9 mm Hg
Decrease in MAP (SHR and WKY rats [3]; SHR, P<0.05): 28%
Decrease in RVR (SHR and WKY rats [3]; SHR, Tempol 72 μmol/kg, P<0.05): 29%
MAP (SHR and WKY rats [3]; [5]): 108±8 mm Hg
RVR (SHR and WKY rats [3]; [5]): 17±2 mm Hg/ml/min
MAP (SHR and WKY rats [3]; SHR, Tempol 12 mg/kg intravenously): 80±5 mm Hg
RBF during Tempol (SHR and WKY rats [3]; SHR): 6.7 ± 0.8 mL/min
RVR (SHR and WKY rats [3]; SHR, low-dose Tempol (24 μmol/kg)): 24±3 mm Hg·mL^−1·min^−1
MAP (SHR and WKY rats [3]; WKY, Tempol 24 μmol/kg IV bolus): 114±5 mm Hg
RVR (SHR and WKY rats [3]; WKY, Tempol 72 μmol/kg): 15±1 mm Hg·mL^−1·min^−1
MAP (SHR and WKY rats [3]; WKY, Tempol 72 μmol/kg IV bolus): 96±6 mm Hg
Decrease in MAP (SHR and WKY rats [3]; WKY, P<0.05): 11%
MAP (SHR and WKY rats [3]; [6]): 98±6 mm Hg
RVR (SHR and WKY rats [3]; [6]): 15±1 mm Hg/ml/min
MAP (SHR and WKY rats [3]; WKY, Tempol 12 mg/kg intravenously): 99±7 mm Hg
RBF during Tempol (SHR and WKY rats [3]; WKY): 6.6 ± 0.7 mL/min
RVR (SHR and WKY rats [3]; WKY, low-dose Tempol (24 μmol/kg)): 17±1 mm Hg·mL^−1·min^−1
MAP after treatment (SHR and WKY rats [4]; SHR, from 133±2, p<0.01): 120±3 mm Hg
Effect on MAP (SHR and WKY rats [4]; WKY): no effect
